Laboratory results: patent US8921272B2, “Herbicidal composition” (Ishihara Sangyo Kaisha, Ltd., priority 2011, dated 2014)

Key:
Type in all cases: in vivo
[1] = test system: green kyllinga (Cyperus brevifolius var. leiolepis); test: Test Example 3: foliar treatment pot test, visually observed growth inhibition of green kyllinga; conditions: 672 h, read-out: Growth inhibition rate (%) of green kyllinga, Measured value
Source text: (§1) When the herbicidal activity in a case where two active ingredients are combined, is larger than the simple sum of the respective herbicidal activities of the two active ingredients (the expected activity), it is called a synergistic effect. The activity expected by the combination of two active ingredients can be calculated as follows (Colby S. R., “Weed”, vol. 15, p. 20-22, 1967). E=α+β−(α×β÷100) where α: growth inhibition rate when treated with x (g/ha) of herbicide X,
(§2) β: growth inhibition rate when treated with y (g/ha) of herbicide Y,
(§3) E: growth inhibition rate expected when treated with x (g/ha) of herbicide X and y (g/ha) of herbicide Y.
(§4) That is, when the actual growth inhibition rate (measured value) is larger than the growth inhibition rate by the above calculation (calculated value), the activity by the combination can be regarded as showing a synergistic effect.
(§5) Growth inhibition rate (%)=0 (equivalent to the non-treated area) to 100 (complete kill)
Upland field soil was put into a 1/1,000,000 ha pot, and tubers of green kyllinga (Cyperus brevifolius var. leiolepis) were planted. […]

[2] = test system: goosegrass (Eleusine indica (L.) Gaertn.); test: Test Example 1: soil treatment pot test, visually observed growth inhibition of goosegrass; conditions: soil treatment one day after sowing, 14 days after treatment, 0 = non-treated, 100 = complete kill, read-out: Growth inhibition rate (%) of goosegrass, Measured value
Source text: When the herbicidal activity in a case where two active ingredients are combined, is larger than the simple sum of the respective herbicidal activities of the two active ingredients (the expected activity), it is called a synergistic effect. The activity expected by the combination of two active ingredients can be calculated as follows (Colby S. R., “Weed”, vol. 15, p. 20-22, 1967). […] β: growth inhibition rate when treated with y (g/ha) of herbicide Y, E: growth inhibition rate expected when treated with x (g/ha) of herbicide X and y (g/ha) of herbicide Y. That is, when the actual growth inhibition rate (measured value) is larger than the growth inhibition rate by the above calculation (calculated value), the activity by the combination can be regarded as showing a synergistic effect. […] Further, in accordance with the Colby's formula, the growth inhibition rate (%) (calculated value) was calculated.

corn (Zea mays L.) = test: Test Example 4: soil treatment pot test, visually observed growth inhibition of corn (crop plant which became weeds); conditions: soil treatment one day after sowing, 28 days after treatment, read-out: Growth inhibition rate (%) of corn, Measured value
Source text: When the herbicidal activity in a case where two active ingredients are combined, is larger than the simple sum of the respective herbicidal activities of the two active ingredients (the expected activity), it is called a synergistic effect. The activity expected by the combination of two active ingredients can be calculated as follows (Colby S. R., “Weed”, vol. 15, p. 20-22, 1967). […] β: growth inhibition rate when treated with y (g/ha) of herbicide Y, E: growth inhibition rate expected when treated with x (g/ha) of herbicide X and y (g/ha) of herbicide Y. That is, when the actual growth inhibition rate (measured value) is larger than the growth inhibition rate by the above calculation (calculated value), the activity by the combination can be regarded as showing a synergistic effect. […] One day later, water dispersible granules containing flazasulfuron as an active ingredient (tradename: SHIBAGEN DF) and water dispersible granules containing amicarbazone as an active ingredient ([…]) in predetermined amounts were diluted with water (corresponding to 200 Uha) and applied for soil treatment by a small sprayer.

[3] = test system: bermuda grass (Cynodon dactylon (L.) Pers.); test: Test Example 2: foliar treatment pot test, visually observed growth inhibition of bermuda grass; conditions: 504 h, foliar treatment at 4.0 to 4.5 leaf stage, 0.25 vol % Agral, 21 days after treatment, read-out: Growth inhibition rate (%) of bermuda grass, Measured value
Source text: as §1, §2, §3, §4, §5
Upland field soil was put into a 1/1,000,000 ha pot, and seeds of bermuda grass (Cynodon dactylon (L.) Pers.) were sown. […]

SMILES	inhibition at 5 g/ha ([1]; dose 5 g/ha, foliar treatment at 6.0 to 7.0 cm, 0.025 vol % Agral, 28 days after treatment) [%]	inhibition at 37.5 g/ha ([2]; dose 37.5 g/ha) [%]	inhibition at 5 g/ha (corn (Zea mays L.); dose 5 g/ha) [%]	inhibition at 200 g/ha ([3]; dose 200 g/ha) [%]	inhibition at 1250 g/ha ([1]; foliar) [%]	inhibition at 1050 g/ha ([2]; dose 1050 g/ha) [%]	inhibition at 2500 g/ha (corn (Zea mays L.); dose 2500 g/ha) [%]	inhibition at 150 g/ha ([3]; dose 150 g/ha) [%]
COc1cc(OC)nc(NC(=O)NS(=O)(=O)c2ncccc2C(F)(F)F)n1 [Flazasulfuron, 1-(4,6-dimethoxypyrimidin-2-yl)-3-(3-trifluoromethyl-2-pyridylsulfonyl)urea]	0	53	40	15	–	–	–	–
CC(C)c1nn(C(=O)NC(C)(C)C)c(=O)n1N [Amicarbazone, 4-amino-N-tertiary butyl-4,5-dihydro-3-isopropyl-5-oxo-1,2,4-1H-triazole-1-carboxamide]	–	–	–	–	69	68	87	0
